Assay results from ChEMBL document CHEMBL1201862, “PubChem BioAssay data set” (2004).
Activity calls are given as the source filed them.

What was measured:
Prothrombin = Prothrombin (Homo sapiens, UniProt P00734); test: Thrombin 1536 HTS Dose Response Confirmation. [Related pubchem assays: 1046 (Thrombin 1536 HTS; hits were confirmed in this assay)]; type: functional
Cytochrome P450 3A4 = Cytochrome P450 3A4 (Homo sapiens, UniProt P08684);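 further: CYP3A4 tested as one member of a cytochrome P450 panel screen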
Chain of Cytochrome P450 3A4 (P08684 whole entry): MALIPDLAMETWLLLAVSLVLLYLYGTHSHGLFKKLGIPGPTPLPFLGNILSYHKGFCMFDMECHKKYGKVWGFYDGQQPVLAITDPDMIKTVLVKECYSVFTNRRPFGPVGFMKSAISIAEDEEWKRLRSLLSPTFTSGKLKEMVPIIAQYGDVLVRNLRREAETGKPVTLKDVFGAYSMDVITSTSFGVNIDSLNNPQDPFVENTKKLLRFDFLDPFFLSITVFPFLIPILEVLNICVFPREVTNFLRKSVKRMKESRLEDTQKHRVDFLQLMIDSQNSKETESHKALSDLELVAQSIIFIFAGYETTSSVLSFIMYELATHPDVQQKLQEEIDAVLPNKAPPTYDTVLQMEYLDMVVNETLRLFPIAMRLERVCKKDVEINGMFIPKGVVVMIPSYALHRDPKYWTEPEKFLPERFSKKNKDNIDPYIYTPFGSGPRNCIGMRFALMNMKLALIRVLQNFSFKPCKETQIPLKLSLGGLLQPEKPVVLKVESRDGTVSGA

Caspase-6 = molecular target: T1, Caspase-6 (Homo sapiens, UniProt P55212); test: human caspase-6 inhibitors, dose response, biochemical, VEID-R110 fluorescence, cherry-pick (AID 720632)
T1 sequence (P55212 whole entry): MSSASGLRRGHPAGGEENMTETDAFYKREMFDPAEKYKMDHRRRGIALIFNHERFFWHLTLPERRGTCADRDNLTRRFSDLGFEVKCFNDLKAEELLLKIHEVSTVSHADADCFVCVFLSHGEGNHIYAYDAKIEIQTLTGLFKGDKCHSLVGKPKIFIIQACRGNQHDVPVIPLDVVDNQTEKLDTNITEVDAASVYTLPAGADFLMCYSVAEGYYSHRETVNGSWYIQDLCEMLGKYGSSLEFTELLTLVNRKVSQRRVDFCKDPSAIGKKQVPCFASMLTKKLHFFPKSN

[1] = HEp-2 cell cytotoxicity, dose response, cytotoxicity control for RSV inhibitor project, HTS (AID 2410); type: functional; conditions: human respiratory syncytial virus
[2] = Luminescence Cell-Based Dose Retest to Confirm Inhibitors of Cancer Stem Cells. [Related pubchem assays (depositor defined):AID2717, AID2721]; type: functional; conditions: Homo sapiens
[3] = Luminescence Cell-Based Dose Confirmation HTS to Identify Activators of 5'UTR Stem-Loop Driven Alpha-Synuclein mRNA Translation in H4 Neuroglioblastoma Cells. [Related pubchem assays: 1829 (Project Summary), 1814 (Primary HTS)]; type: functional
[4] = Luminescence Cell-Based Dose Response HTS to Identify Activators of Luciferase Translation or Activity in H4 […] Cells. [Related pubchem assays: 1829 (Project Summary), 1814 (Primary HTS)]; type: functional
H4 = test: Luminescence Cell-Based Dose Response HTS to Identify Activators of 5'UTR Stem-Loop Driven Prion Protein mRNA Translation in H4 Neuroglioblastoma Cells. [Related pubchem assays: 1829 (Project Summary), 1814 (Primary HTS)]; type: functional; conditions: Homo sapiens
[5] = M. tuberculosis H37Rv growth inhibitors, H37Rv strain (AID 1626); type: functional
[6] = molecular target: Mitogen-activated protein kinase 10 (Homo sapiens, UniProt P53779); test: Dose response biochemical screening assay for inhibitors of c-Jun N-Terminal Kinase 3 (JNK3). [Related pubchem assays: 746 ]
Chain of Mitogen-activated protein kinase 10 (P53779 whole entry): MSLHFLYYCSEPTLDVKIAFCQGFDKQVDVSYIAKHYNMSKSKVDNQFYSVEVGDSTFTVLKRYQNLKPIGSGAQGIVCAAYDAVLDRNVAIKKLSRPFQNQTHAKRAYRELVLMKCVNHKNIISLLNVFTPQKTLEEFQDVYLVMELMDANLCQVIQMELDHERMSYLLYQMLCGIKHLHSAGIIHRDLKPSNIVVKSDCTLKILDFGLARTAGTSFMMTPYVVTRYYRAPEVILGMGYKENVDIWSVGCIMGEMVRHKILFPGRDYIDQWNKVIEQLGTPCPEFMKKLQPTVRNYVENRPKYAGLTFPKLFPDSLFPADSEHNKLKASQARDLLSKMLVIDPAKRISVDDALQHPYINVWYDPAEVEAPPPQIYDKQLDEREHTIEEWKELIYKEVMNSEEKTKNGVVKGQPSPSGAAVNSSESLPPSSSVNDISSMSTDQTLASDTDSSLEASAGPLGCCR

Caspase-3 = molecular target: T2, Caspase-3 (Homo sapiens, UniProt P42574); type: functional;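 further: Dose-response selectivity test against caspase-3 for candidate inhibitors of sentrin-specific proteases (SENPs)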
T2 sequence (P42574 whole entry): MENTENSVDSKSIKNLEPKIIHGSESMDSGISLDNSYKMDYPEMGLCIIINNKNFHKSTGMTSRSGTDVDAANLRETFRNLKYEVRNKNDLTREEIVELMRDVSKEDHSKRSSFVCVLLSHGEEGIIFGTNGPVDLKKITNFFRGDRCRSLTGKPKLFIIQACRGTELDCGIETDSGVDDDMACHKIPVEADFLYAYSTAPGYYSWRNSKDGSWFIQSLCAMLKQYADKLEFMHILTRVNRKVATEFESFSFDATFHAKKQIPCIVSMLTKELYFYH

[7] = Luminescence Cell-Based Dose Response to Identify Activators of Luciferase Translation or Activity in H4-C Neuroglioblastoma Cells. [Related pubchem assays: 1829 (Project Summary), 1814 (Primary HTS)]; type: functional
[8] = molecular target: T3, Sentrin-specific protease 7 (Homo sapiens, UniProt Q9BQF6); type: functional;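 further: Luminescence-based dose-response confirmation of ultra-high-throughput screening hits, measuring inhibition of SENP7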
T3 sequence (Q9BQF6 whole entry): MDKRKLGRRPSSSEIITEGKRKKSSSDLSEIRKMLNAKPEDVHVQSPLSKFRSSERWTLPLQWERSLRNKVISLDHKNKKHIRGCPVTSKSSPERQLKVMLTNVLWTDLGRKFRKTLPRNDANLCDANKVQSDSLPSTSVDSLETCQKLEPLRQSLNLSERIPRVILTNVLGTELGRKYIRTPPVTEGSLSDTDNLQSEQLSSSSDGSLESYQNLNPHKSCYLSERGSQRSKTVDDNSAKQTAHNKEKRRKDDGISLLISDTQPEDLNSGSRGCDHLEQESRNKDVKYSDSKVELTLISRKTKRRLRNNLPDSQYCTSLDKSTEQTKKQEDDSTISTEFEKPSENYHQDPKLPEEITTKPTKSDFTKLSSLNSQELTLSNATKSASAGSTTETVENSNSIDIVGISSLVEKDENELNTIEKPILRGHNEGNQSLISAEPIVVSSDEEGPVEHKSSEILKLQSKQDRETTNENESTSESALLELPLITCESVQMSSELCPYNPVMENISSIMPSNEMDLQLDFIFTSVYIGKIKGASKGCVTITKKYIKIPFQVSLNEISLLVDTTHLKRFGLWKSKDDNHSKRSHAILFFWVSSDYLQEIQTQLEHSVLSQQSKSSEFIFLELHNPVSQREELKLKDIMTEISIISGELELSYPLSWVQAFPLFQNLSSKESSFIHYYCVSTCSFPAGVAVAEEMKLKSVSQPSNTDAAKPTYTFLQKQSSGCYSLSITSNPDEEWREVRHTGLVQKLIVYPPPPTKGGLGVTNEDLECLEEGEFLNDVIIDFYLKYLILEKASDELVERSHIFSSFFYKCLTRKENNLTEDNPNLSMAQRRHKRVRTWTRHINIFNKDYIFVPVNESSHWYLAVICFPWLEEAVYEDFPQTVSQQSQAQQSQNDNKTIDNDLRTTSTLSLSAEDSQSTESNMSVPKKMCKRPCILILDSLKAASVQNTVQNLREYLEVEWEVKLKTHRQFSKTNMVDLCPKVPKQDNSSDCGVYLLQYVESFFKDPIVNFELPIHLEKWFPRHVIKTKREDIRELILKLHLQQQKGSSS

[9] = molecular target: T4, Sentrin-specific protease 8 (Homo sapiens, UniProt Q96LD8); type: functional;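 further: luminescence read-out of SENP8 inhibition, dose-response confirmation following an ultra-high-throughput screen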
T4 sequence (Q96LD8 whole entry): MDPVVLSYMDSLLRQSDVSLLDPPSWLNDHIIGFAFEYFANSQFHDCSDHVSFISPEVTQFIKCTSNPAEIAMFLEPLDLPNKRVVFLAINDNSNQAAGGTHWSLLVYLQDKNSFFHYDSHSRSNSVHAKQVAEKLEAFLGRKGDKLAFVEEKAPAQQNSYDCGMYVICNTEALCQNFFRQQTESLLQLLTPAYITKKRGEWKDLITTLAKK

[10] = Luminescence Cell-Based Dose Confirmation to Identify Activators of 5'UTR Stem-Loop Driven Alpha-Synuclein mRNA Translation in H4 Neuroglioblastoma Cells. [Related pubchem assays: 1829 (Project Summary), 1814 (Primary HTS)]; type: functional
[11] = molecular target: T5, Sentrin-specific protease 6 (Homo sapiens, UniProt Q9GZR1); type: functional;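 further: Luminescence-based dose-response confirmatory assay of SENP6 inhibition, following up an ultra-high-throughput screen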
T5 sequence (Q9GZR1 whole entry): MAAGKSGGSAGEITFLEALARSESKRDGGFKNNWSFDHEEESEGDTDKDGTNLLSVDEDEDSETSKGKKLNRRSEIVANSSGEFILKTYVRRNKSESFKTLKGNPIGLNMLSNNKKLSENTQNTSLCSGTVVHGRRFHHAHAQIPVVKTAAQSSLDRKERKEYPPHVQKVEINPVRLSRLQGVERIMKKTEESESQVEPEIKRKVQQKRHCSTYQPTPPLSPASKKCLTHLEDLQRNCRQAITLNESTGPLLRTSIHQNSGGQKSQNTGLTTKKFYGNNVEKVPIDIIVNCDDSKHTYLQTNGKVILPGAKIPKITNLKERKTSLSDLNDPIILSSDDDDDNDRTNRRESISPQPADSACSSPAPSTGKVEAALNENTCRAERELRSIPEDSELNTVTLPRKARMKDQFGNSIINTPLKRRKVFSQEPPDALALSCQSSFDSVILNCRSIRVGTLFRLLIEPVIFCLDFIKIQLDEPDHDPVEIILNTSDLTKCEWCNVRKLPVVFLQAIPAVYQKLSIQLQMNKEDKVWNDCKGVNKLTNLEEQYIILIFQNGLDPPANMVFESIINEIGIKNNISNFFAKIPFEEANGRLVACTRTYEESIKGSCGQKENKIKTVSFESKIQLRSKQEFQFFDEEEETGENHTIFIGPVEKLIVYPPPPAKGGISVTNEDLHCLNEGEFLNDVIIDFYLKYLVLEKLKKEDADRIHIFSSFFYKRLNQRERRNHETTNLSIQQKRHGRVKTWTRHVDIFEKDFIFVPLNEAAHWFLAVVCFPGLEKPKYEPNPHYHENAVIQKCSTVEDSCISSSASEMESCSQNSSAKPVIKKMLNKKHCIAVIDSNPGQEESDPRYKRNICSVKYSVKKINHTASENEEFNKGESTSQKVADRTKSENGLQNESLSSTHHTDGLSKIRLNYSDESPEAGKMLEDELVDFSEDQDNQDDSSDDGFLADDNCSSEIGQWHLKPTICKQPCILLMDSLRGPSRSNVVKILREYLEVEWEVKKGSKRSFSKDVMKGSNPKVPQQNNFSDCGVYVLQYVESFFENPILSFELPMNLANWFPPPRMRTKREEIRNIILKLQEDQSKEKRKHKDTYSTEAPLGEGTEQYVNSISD

[12] = Luminescence Cell-Based Dose Response to Identify Activators of 5'UTR Stem-Loop Driven Prion Protein mRNA Translation in H4-C Neuroglioblastoma Cells. [Related pubchem assays: 1829 (Project Summary), 1814 (Primary HTS)]; type: functional
Fatty acid synthase [13] = molecular target: T6, Fatty acid synthase (Homo sapiens, UniProt P49327); test: FAS thioesterase domain inhibitors, dose response, biochemical, kinetic fluorescence intensity (AID 624326); type: functional;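 further: rate of fluorescence rise from hydrolysis of a fluorogenic O-methyl fluorescein ester substrate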
T6 sequence (P49327 whole entry, the tested form may be a part): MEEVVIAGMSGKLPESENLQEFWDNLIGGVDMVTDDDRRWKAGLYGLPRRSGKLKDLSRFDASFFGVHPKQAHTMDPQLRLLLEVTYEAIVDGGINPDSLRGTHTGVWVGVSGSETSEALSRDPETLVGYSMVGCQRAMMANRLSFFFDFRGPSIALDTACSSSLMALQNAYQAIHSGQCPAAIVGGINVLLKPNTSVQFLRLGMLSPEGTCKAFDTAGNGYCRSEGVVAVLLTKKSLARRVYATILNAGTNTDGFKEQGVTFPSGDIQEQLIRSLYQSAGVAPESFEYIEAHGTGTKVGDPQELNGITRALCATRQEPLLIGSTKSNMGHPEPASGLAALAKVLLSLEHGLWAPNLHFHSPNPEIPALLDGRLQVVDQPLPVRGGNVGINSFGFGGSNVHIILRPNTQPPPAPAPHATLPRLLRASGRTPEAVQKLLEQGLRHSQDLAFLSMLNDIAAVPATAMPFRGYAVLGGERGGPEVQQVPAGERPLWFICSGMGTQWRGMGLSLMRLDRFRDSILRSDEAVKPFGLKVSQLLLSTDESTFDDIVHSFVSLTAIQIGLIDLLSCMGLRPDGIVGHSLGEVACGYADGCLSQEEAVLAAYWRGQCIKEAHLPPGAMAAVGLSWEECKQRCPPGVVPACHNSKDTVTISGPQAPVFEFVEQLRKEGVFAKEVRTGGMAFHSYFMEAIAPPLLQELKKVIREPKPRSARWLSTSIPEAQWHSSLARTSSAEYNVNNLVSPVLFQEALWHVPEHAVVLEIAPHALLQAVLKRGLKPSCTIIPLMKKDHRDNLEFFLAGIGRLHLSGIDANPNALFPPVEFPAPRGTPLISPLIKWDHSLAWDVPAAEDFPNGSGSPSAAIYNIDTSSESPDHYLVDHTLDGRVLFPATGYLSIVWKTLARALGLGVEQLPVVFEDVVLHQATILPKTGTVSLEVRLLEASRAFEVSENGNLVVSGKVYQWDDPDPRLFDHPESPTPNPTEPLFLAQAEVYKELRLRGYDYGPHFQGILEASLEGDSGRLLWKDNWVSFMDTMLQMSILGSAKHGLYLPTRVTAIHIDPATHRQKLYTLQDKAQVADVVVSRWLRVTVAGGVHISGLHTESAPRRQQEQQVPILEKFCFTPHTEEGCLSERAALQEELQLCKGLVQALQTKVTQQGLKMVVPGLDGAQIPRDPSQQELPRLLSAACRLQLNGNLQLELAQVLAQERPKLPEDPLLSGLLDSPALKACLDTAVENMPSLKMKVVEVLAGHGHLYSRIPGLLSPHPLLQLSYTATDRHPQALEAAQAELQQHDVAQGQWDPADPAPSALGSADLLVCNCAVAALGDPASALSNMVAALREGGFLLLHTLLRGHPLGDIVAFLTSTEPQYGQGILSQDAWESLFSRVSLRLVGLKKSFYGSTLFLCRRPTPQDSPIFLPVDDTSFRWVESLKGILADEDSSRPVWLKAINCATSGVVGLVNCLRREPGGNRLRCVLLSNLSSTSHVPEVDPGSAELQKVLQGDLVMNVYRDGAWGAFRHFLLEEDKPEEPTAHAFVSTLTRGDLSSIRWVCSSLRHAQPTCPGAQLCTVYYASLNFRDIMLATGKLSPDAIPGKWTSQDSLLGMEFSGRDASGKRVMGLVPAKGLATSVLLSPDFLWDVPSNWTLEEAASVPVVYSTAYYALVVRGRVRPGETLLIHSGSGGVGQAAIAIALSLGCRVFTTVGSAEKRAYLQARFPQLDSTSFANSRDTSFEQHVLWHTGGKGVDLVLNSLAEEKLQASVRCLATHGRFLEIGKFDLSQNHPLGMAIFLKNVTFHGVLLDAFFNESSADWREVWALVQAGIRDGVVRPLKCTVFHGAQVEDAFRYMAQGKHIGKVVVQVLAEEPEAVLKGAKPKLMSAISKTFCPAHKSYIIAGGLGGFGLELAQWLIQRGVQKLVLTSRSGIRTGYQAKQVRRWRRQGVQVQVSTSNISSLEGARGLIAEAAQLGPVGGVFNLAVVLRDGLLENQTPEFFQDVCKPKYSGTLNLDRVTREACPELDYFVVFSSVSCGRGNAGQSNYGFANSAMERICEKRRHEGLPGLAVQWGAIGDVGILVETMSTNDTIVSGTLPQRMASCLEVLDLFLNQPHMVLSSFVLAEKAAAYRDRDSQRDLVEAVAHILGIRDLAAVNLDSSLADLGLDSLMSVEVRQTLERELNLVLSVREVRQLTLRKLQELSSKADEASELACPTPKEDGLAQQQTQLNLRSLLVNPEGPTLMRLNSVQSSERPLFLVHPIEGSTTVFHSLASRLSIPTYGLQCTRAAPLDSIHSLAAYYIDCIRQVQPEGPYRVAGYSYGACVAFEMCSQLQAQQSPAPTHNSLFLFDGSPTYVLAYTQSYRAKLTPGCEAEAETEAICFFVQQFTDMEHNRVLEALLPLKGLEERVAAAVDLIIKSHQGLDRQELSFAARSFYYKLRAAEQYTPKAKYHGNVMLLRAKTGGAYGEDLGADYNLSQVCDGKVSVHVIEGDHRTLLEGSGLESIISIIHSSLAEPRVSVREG

Fatty acid synthase [14] = molecular target: T6, Fatty acid synthase; test: FAS thioesterase domain inhibitors, dose response, biochemical, endpoint fluorescence intensity, uHTS hits (AID 624327); type: functional;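 further: fluorescence from hydrolysis of an O-methyl fluorescein acyl ester substrate by the enzyme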
[15] = P. falciparum Dd2 growth inhibitors, dose response, SYBR Green, cherry-picked samples (AID 1159567); type: functional, cell-based
[16] = HepG2 cell cytotoxicity, dose response, cytotoxicity control, cherry-picked samples (AID 1159577); type: functional, cell-based
[17] = P. falciparum Dd2 growth inhibitors, dose response, SYBR Green, dry powder samples (AID 1159566); type: functional, cell-based;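 further: potency for growth inhibition with lower SYBR green DNA signal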
[18] = P. falciparum 3D7-ScDHODH growth inhibitors, dose response, SYBR Green, dry powder samples (AID 1159570); type: functional, cell-based;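 further: parasite growth measured after 72 hours of compound exposure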
[19] = P. falciparum ATP4 D1247Y mutant growth inhibitors, dose response, NITD609-resistant line, SYBR Green, dry powder (AID 1159571); type: functional, cell-based;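 further: parasites synchronized at ring stage by sorbitol before testing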

## COC(=O)CSc1nnc(-c2ccccc2OC)n1-c1ccc(C)cc1
Prothrombin
  IC50: > 50 µM (not active)
Cytochrome P450 3A4
  AC50: 15.8 µM (inconclusive)

## Cc1ccc(C)n1-c1sc2c(c1C(=O)O)CCCC2
Caspase-6
  AC50: 6.02 µM (active)

## COCCNc1cc(-c2ccccc2)nc2cc(-c3cccc(F)c3)nn12
[1]
  CC50: 35.1 µM (active)
cells
  IC50: 41.8 µM (active)
[2]
  AC50: 6.74 µM (active)

## O=C1c2ccccc2C(=O)c2c([N+](=O)[O-])ccc(O)c21
Caspase-6
  AC50: 9.76 µM (active)

## COc1ccc(NC(=O)n2nc(OC(=O)c3cccs3)cc2N)cc1
[3]
  EC50: > 60 µM (not active)
[4]
  EC50: 12.1 µM (active)
Prothrombin
  IC50: 12.7 µM (active)
H4
  EC50: 28.1 µM (active)

## CC(C(=O)N=Nc1c(O)[nH]c2ccccc12)n1cnc2ccccc2c1=O (stereo unspecified)
cells
  IC50: > 50 µM (active)

## CCN(Cc1nc(O)c2ccccc2n1)C(=O)c1cc(C2CC2)nn1-c1ccccc1
cells
  IC50: 8.79 µM (active)

## Nc1nc(COc2ccc(Cl)cc2)cs1
[5]
  IC50: > 100 µM (active)

## O=C(CCCCCn1c(SCC(=O)c2ccccc2)nc2ccccc2c1=O)NCc1ccco1
[6]
  IC50: 38.9 µM (not active)

## CCCc1nc2sc3ccccc3c(=O)c2c(=O)n1Cc1ccc(OC)cc1
[5]
  IC50: > 100 µM (active)

## COc1ccc(OC)c(C(=O)c2coc3ccc(O)cc23)c1
[6]
  IC50: > 93.1 µM (not active)

## Cc1ccc(OCc2nc(-c3ccccc3)no2)c(C)c1
Caspase-3
  IC50: 28.9 µM (active)
[7]
  EC50: > 12 µM (not active)
[8]
  IC50: 7.65 µM (active)
[9]
  IC50: 62 µM (active)
[4]
  EC50: < 0.1 µM (active)
[10]
  EC50: 8.27 µM (active)
[11]
  IC50: 11.8 µM (active)
[12]
  EC50: 1.03 µM (active)

## COC(=O)c1n[nH]c(NC(=O)c2ccccc2Br)n1
Prothrombin
  IC50: 0.082 µM (active)

## Cc1cccn2c(=O)c(/C=C(\C#N)C(=O)NCc3ccco3)c(N3CCCCCC3)nc12
Fatty acid synthase [13]
  IC50: 9.53 µM (active)
[1]
  CC50: 22 µM (active)
cells
  IC50: 22.5 µM (active)
Fatty acid synthase [14]
  IC50: 21.9 µM (inactive)

## Nc1nnc(CC(=O)N/N=C/c2cccc(OCCOc3ccccc3)c2)s1
[7]
  EC50: 0.88 µM (active)
[4]
  EC50: < 0.1 µM (active)
[10]
  EC50: 0.38 µM (active)
H4
  EC50: 21.8 µM (active)
[12]
  EC50: 1.25 µM (active)

## CCOc1nn(-c2ccccc2)c(O)c1/C=N/c1ccc(OC)cc1
[5]
  IC50: > 100 µM (active)

## COc1cccc(S(=O)(=O)Nc2ccc3c(c2)[C@@H]2C[C@H](CC(=O)NCc4cccc(F)c4)O[C@@H](CO)[C@@H]2O3)c1
[15]
  AC50: 6.43 µM (active)
[16]
  AC50: 22.7 µM (active)

## C[C@@H]1CN([C@H](C)CO)C(=O)c2c(c3ccccc3n2C)-c2ccccc2CO[C@H]1CN(C)Cc1ccc(Cl)c(Cl)c1
[15]
  AC50: 3.7 µM (active)
[16]
  AC50: 30 µM (active)

## CC(C)CNC[C@@H]1[C@@H](c2ccccc2)[C@@H](CO)N1Cc1ccc(F)cc1
[17]
  AC50: 0.409 µM (active)
[18]
  AC50: 3.03 µM (active)
[15]
  AC50: 1.33 µM (active)
[19]
  AC50: 0.727 µM (active)

## COc1ccc2c3c(n(C)c2c1)[C@H](CO)N(CC1CCCCC1)CC31CCN(Cc2nccs2)CC1
[17]
  AC50: 1.62 µM (active)
[18]
  AC50: 1.26 µM (active)
[15]
  AC50: 1.94 µM (active)
[19]
  AC50: 1.52 µM (active)

## O=C(C1CCCCC1)N1CC(=O)N2[C@H](C1)[C@@H](c1ccc(C#Cc3cccc(F)c3)cc1)[C@@H]2CO
[15]
  AC50: 4.26 µM (active)
[16]
  AC50: > 39 µM (inactive)

## CCOC(=O)c1ccc(NC(=O)N2CCN(Cc3ccccc3)CC2)cc1
[5]
  IC50: > 100 µM (active)
